Data as given in patent publication US4293694A, “Pyrido[3,2,1-jk]carbazols” (Otsuka Pharmaceutical Co., Ltd., priority 1979, dated 1981).
Converted amounts (≈) assume the structure as drawn. Read-outs that look alike come from different tables or passages of the source.

Tests used:
[1] = tested on: Bacillus subtilis ATCC 6633; assay: Antimicrobial activity, serial dilution method on agar plate; assay type: cell-based; details: ATCC6633, read-out: Minimum Inhibitory Concentration (MIC)
[2] = tested on: Bacillus anthracis; assay: microbe, parasite or virus in culture; assay type: cell-based; details: read-out: Minimum Inhibitory Concentration (MIC)
[3] = tested on: Bacillus cereus ATCC 11778; assay: Antimicrobial activity, serial dilution method on agar plate; assay type: cell-based; details: ATCC11778, read-out: Minimum Inhibitory Concentration (MIC)
[4] = tested on: Staphyrococcus aureus FDA 209p; assay: as above; assay type: cell-based; details: read-out: Minimum Inhibitory Concentration (MIC)
[5] = tested on: Staphyrococcus aureus Newmann; assay: as above; assay type: cell-based; details: read-out: Minimum Inhibitory Concentration (MIC)
[6] = tested on: Streptococcus faecalis IFO 12580; assay: as above; assay type: cell-based; details: Enterococcus faecalis, IFO12580, read-out: Minimum Inhibitory Concentration (MIC)
[7] = tested on: Streptomyces viridans; assay: as above; assay type: cell-based; details: read-out: Minimum Inhibitory Concentration (MIC)
[8] = tested on: Sarcina lutea ATCC 9341; assay: as above; assay type: cell-based; details: Micrococcus luteus, ATCC9341, read-out: Minimum Inhibitory Concentration (MIC)
[9] = tested on: Micrococcus flavus ATCC 10240a; assay: as above; assay type: cell-based; details: ATCC10240A, read-out: Minimum Inhibitory Concentration (MIC)
[10] = tested on: Serratia marcescens ATCC 14756; assay: as above; assay type: cell-based; details: ATCC14756, read-out: Minimum Inhibitory Concentration (MIC)
[11] = tested on: Salmonella typhimurium kh; assay: as above; assay type: cell-based; details: Salmonella enterica, read-out: Minimum Inhibitory Concentration (MIC)
[12] = tested on: Enterbactor cloacae 2; assay: as above; assay type: cell-based; details: read-out: Minimum Inhibitory Concentration (MIC)
[13] = tested on: Enterbactor aerogenes IFO 12979; assay: as above; assay type: cell-based; details: read-out: Minimum Inhibitory Concentration (MIC)
[14] = tested on: Klebsiella pneumoniae ST-101; assay: as above; assay type: cell-based; details: ST101, read-out: Minimum Inhibitory Concentration (MIC)
[15] = tested on: Esherichia coli NIHJ; assay: as above; assay type: cell-based; details: read-out: Minimum Inhibitory Concentration (MIC)
[16] = tested on: Esherichia coli NIHJ JC-2; assay: as above; assay type: cell-based; details: read-out: Minimum Inhibitory Concentration (MIC)
[17] = tested on: Proteus mirabilis 1287; assay: as above; assay type: cell-based; details: read-out: Minimum Inhibitory Concentration (MIC)
[18] = tested on: Pseudomonas aeruginosa ATCC 10145; assay: as above; assay type: cell-based; details: ATCC10145, read-out: Minimum Inhibitory Concentration (MIC)
[19] = tested on: Candida albicans KYU; assay: as above; assay type: cell-based; details: read-out: Minimum Inhibitory Concentration (MIC)
[20] = Acute toxicity; details: rat, in vivo, rats, dd strain, 18 to 22 g, fasted 12 hours
Protocol: Further, the acute toxicity of the compounds of the present invention having the formula (I) was determined by intravenous administration (i.v.) and oral administration (p.o.) in 5 to 6 groups of rats (dd strain; body weight, 18 to 22 g; 10 rats in each group) which had been fasted for 12 hours prior to the test.

[21] = iv, read-out: LD50 (50% lethal dose), i.v.
[22] = po, read-out: LD50 (50% lethal dose), p.o.

SMILES | MIC [1] [µg/mL] | MIC [2] [µg/mL] | MIC [3] [µg/mL] | MIC [4] [µg/mL] | MIC [5] [µg/mL] | MIC [6] [µg/mL] | MIC [7] [µg/mL] | MIC [8] [µg/mL] | MIC [9] [µg/mL] | MIC [10] [µg/mL] | MIC [11] [µg/mL] | MIC [12] [µg/mL] | MIC [13] [µg/mL] | MIC [14] [µg/mL] | MIC [15] [µg/mL] | MIC [16] [µg/mL] | MIC [17] [µg/mL] | MIC [18] [µg/mL] | MIC [19] [µg/mL] | LD50 [20, 21] [mg/kg] | other results
O=C(NN=Cc1ccc([N+](=O)[O-])o1)c1cn2c3c(cc(F)cc3c1=O)C1CCCCC12 (stereo not drawn) [Compound 11] | 3.2 (≈ 7.54 µM) | 6.3 (≈ 14.8 µM) | 12.5 (≈ 29.5 µM) | 12.5 (≈ 29.5 µM) | 12.5 (≈ 29.5 µM) | > 100 | > 100 | 100 (≈ 236 µM) | 100 (≈ 236 µM) | 12.5 (≈ 29.5 µM) | 12.5 (≈ 29.5 µM) | 6.3 (≈ 14.8 µM) | 6.3 (≈ 14.8 µM) | 6.3 (≈ 14.8 µM) | 12.5 (≈ 29.5 µM) | 12.5 (≈ 29.5 µM) | 12.5 (≈ 29.5 µM) | > 100 | > 500 | 180 | LD50 [20, 22]: 3000 mg/kg
CC1CCN(CCOC(=O)c2cn3c4c(cc(F)cc4c2=O)C2CCCCC23)CC1 (stereo not drawn) [Compound 12] | 3.2 (≈ 7.76 µM) | 6.3 (≈ 15.3 µM) | 6.3 (≈ 15.3 µM) | 6.3 (≈ 15.3 µM) | 6.3 (≈ 15.3 µM) | 50 (≈ 121 µM) | 100 (≈ 242 µM) | 50 (≈ 121 µM) | 50 (≈ 121 µM) | 12.5 (≈ 30.3 µM) | 12.5 (≈ 30.3 µM) | 6.3 (≈ 15.3 µM) | 6.3 (≈ 15.3 µM) | 6.3 (≈ 15.3 µM) | 6.3 (≈ 15.3 µM) | 6.3 (≈ 15.3 µM) | 12.5 (≈ 30.3 µM) | > 100 | > 500 | 130 | LD50 [20, 22]: 2000 mg/kg
